Source: patent EP4603105A1, “PHARMACEUTICAL COMPOSITION CONTAINING CYCLIC COMPOUND HAVING SELECTIVE KRAS INHIBITORY EFFECT AGAINST HRAS AND NRAS” (CHUGAI SEIYAKU KABUSHIKI KAISHA, priority 2022, dated 2024)
Like-named read-outs stand apart in the source and are kept apart here.

How the values were obtained:
[1] = tested on: human lung cancer strain NCI-H441; test: NCI-H441 cell proliferation inhibitory activity (CellTiter-Glo, 4 days); assay type: cell-based; conditions: read-out: NCl-H441 IC50
Summary of the method: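 Signal came from […] measured per well once the reagent was added. Beforehand, cells were cultured at 37°C and 5% carbon dioxide on a compound series serially diluted in dimethyl sulfoxide.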

[2] = target: GDP-bound NRAS wild-type protein (Homo sapiens, UniProt P01111); test: Binding to NRAS by surface plasmon resonance (SPR), KD and KD ratio to KRAS
Chain of GDP-bound NRAS wild-type protein (P01111 whole entry): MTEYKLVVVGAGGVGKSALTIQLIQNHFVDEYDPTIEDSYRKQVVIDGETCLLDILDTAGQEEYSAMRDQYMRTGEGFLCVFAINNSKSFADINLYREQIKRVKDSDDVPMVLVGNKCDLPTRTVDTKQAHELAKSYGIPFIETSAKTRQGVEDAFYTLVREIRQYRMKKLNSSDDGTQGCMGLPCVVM
Summary of the method: (§1)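 Measured at 30°C: SPR with GDP-loaded, E. coli-expressed biotin-Avi RAS captured (~100–300 RU), ascending 75 s compound injections, HBS pH 7.4 with GDP, MgCl2, 4% DMSO. KD from 1:1 fit.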

HRAS wild-type protein = HRAS wild-type protein (Homo sapiens, UniProt P01112); test: Binding to HRAS by surface plasmon resonance (SPR), KD and KD ratio to KRAS
Chain of HRAS wild-type protein (P01112 whole entry): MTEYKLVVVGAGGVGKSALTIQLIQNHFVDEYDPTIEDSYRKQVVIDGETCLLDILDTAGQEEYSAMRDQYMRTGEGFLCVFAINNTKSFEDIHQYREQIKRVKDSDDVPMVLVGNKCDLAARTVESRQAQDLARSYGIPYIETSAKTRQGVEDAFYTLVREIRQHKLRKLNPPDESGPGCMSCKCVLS
Summary of the method: as §1

[3] = target: GDP-bound KRAS wild-type protein (Homo sapiens, UniProt P01116); test: Binding to KRAS by surface plasmon resonance (SPR), dissociation constant KD
Chain of GDP-bound KRAS wild-type protein (P01116 1-188 isoform P01116-2): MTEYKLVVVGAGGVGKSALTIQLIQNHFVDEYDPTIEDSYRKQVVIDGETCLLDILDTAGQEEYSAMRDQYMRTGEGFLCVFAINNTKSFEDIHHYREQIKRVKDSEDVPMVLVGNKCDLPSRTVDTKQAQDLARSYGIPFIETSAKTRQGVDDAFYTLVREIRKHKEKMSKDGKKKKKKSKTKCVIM
Summary of the method: as §1

[4] = ratio of KD for GDP-bound NRAS wild-type protein to KD for KRAS
[5] = ratio of KD for HRAS wild-type protein to KD for KRAS
[6] = 50% proliferation inhibitory concentration, four days
[7] = ratio of KD with respect to GDP-bound NRAS wild-type protein to KD with respect to KRAS
[8] = ratio of KD with respect to HRAS wild-type protein to KD with respect to KRAS
[9] = Single Cycle Kinetics, 1:1 binding model

| SMILES | IC50 ([1]; NCI-H441 cells, 4 days) [nM] | NRAS /KRAS [2, 4] | HRAS /KRAS (HRAS wild-type protein; [5]) | Kd ([3]; Single Cycle Kinetics) [nM] | Kd ([3]; 1:1 binding model) [nM] | IC50 [1, 6] [nM] | NRAS /KRAS [2, 7] | HRAS /KRAS (HRAS wild-type protein; [8]) | Kd [3, 9] [nM] |
| --- | --- | --- | --- | --- | --- | --- | --- | --- | --- |
| CCC[C@H]1C(=O)N[C@@H]([C@@H](C)CC)C(=O)N(C2CC2)CC(=O)N(C)[C@H]2C/C=C\CCN(C2=O)[C@@H](Cc2ccc(C)cc2)C(=O)N(C)CC(=O)N[C@@H](CCc2ccc(C(F)(F)F)c(Cl)c2)C(=O)N2CC[C@H](OC)[C@H]2C(=O)N(C)C2(CCC2)C(=O)N(C)[C@@H](C2CCCC2)C(=O)N(C)[C@H](C(=O)N(C)C)CC(=O)N1C [PP3233] | 9.3 | A (a compound having 10 or more and less than 20 is denoted as A) | A (a compound having 10 or more and less than 20 is denoted as A) | 0.25 | – | – | – | – | – |
| CCC[C@H]1C(=O)N[C@@H]([C@@H](C)CC)C(=O)N2CCCC[C@H]2C(=O)N(C)[C@H]2C/C=C\CCN(C2=O)[C@@H](Cc2ccc(C)cc2)C(=O)N(C)CC(=O)N[C@@H](CCc2ccc(C(F)(F)F)c(Cl)c2)C(=O)N2C[C@H](OCC)C[C@H]2C(=O)N(C)C2(CCC2)C(=O)N(C)[C@@H](C2CCCC2)C(=O)N(C)[C@H](C(=O)N(C)C)CC(=O)N1C [PP3275] | 84.8 | B (a compound having 3 or more and less than 10 is denoted as B) | B (a compound having 3 or more and less than 10 is denoted as B) | 1.7 | – | – | – | – | – |
| CCC(CC)[C@H]1C(=O)N(C)[C@H](C(=O)N2CCCCC2)CC(=O)N(C)[C@@H](COC)C(=O)N[C@@H]([C@@H](C)CC)C(=O)N(C)CC(=O)N(C)[C@H]2C/C=C\CCN(C2=O)[C@@H](Cc2ccc(C(F)(F)F)cc2)C(=O)N(C)CC(=O)N[C@@H](CCc2ccc(Cl)c(Cl)c2)C(=O)N2C[C@H](OC(C)C)C[C@H]2C(=O)NC2(CC(C)(C)C2)C(=O)N1C [PP2612] | 199 | AA (a compound having 20 or more is denoted as AA) | A (a compound having 10 or more and less than 20 is denoted as A) | – | 2.4 | – | – | – | – |
| C#CC[C@H]1C(=O)N[C@@H]([C@@H](C)CC)C(=O)N(C2CC2)CC(=O)N(C)[C@H]2C/C=C\CCN(C2=O)[C@@H](Cc2ccc(C(F)(F)F)cc2)C(=O)N(C)CC(=O)N[C@@H](CCc2cc(F)c(C(F)(F)F)c(F)c2)C(=O)N2C[C@H](OCC)C[C@H]2C(=O)N(C)C2(CCC2)C(=O)N(C)[C@@H](C2CCCC2)C(=O)N(C)[C@H](C(=O)N(C)C)CC(=O)N1C [PP3244] | 1.9 | A (a compound having 10 or more and less than 20 is denoted as A) | A (a compound having 10 or more and less than 20 is denoted as A) | 0.1 | – | – | – | – | – |
| CCC(CC)[C@H]1C(=O)N(C)[C@H](C(=O)N(C)C)CC(=O)N(C)[C@@H](COC)C(=O)N[C@@H]([C@@H](C)CC)C(=O)N(C)CC(=O)N(C)[C@H]2C/C=C\CCN(C2=O)[C@@H](Cc2ccc(C(F)(F)F)cc2)C(=O)N(C)CC(=O)N[C@@H](CCc2ccc(Cl)c(Cl)c2)C(=O)N2C[C@H](OC3CCC3)C[C@H]2C(=O)NC2(CC(C)(C)C2)C(=O)N1C [PP2642] | 36.6 | AA (a compound having 20 or more is denoted as AA) | A (a compound having 10 or more and less than 20 is denoted as A) | – | 0.44 | – | – | – | – |
| CCC[C@H]1C(=O)N[C@@H]([C@@H](C)CC)C(=O)N2CC[C@H]2C(=O)N(C)[C@H]2C/C(F)=C\CCN(C2=O)[C@@H](Cc2ccc(C(F)(F)F)cc2)C(=O)N(C)CC(=O)N[C@@H](CCc2ccc(C(F)(F)F)c(OC)c2)C(=O)N2C[C@H](OCC)C[C@H]2C(=O)N(C)C2(CCC2)C(=O)N(C)[C@@H](C2CCCC2)C(=O)N(C)[C@H](C(=O)N(C)C)CC(=O)N1C [PP3529] | 7.1 | B (a compound having 3 or more and less than 10 is denoted as B) | B (a compound having 3 or more and less than 10 is denoted as B) | 0.11 | – | – | – | – | – |
| CC[C@H](C)[C@@H]1NC(=O)[C@H](CC2CC2)N(C)C(=O)C[C@@H](C)N(C)C(=O)[C@H](C2CCCC2)N(C)C(=O)C2(CCC2)NC(=O)[C@H](CCC(F)F)N(C)C(=O)[C@H](CCc2cc(F)c(C(F)(F)F)c(F)c2)NC(=O)CN(C)C(=O)[C@H](Cc2ccc(C(F)(F)F)cc2)N2CC/C=C\C[C@@H](C2=O)N(C)C(=O)CN(C)C1=O [PP1404] | – | – | – | – | – | 498 | A (a compound having 10 or more and less than 20 is denoted as A) | A (a compound having 10 or more and less than 20 is denoted as A) | 4.8 |
| CCO[C@@H]1C[C@H]2C(=O)NC3(CC(C)(C)C3)C(=O)N(C)[C@@H](C3CCCC3)C(=O)N(C)[C@H](C(=O)N(C)C)CC(=O)N(C)[C@@H]([C@H](C)OC)C(=O)N[C@@H]([C@@H](C)CC)C(=O)N(C)CC(=O)N(C)[C@H]3C/C=C\CCN(C3=O)[C@@H](Cc3ccc(C(F)(F)F)cc3)C(=O)N(C)CC(=O)N[C@@H](CCc3ccc(C(F)(F)F)c(OC)c3)C(=O)N2C1 [PP3167] | 9.8 | B (a compound having 3 or more and less than 10 is denoted as B) | A (a compound having 10 or more and less than 20 is denoted as A) | 0.1 | – | – | – | – | – |
| CCCOC[C@H]1C(=O)N[C@@H]([C@@H](C)CC)C(=O)N(C)CC(=O)N(C)[C@H]2C/C=C\CCN(C2=O)[C@@H](Cc2ccc(C)cc2)C(=O)N(C)CC(=O)N[C@@H](CCc2cc(F)c(C(F)(F)F)c(F)c2)C(=O)N2C[C@@H](C)C[C@H]2C(=O)NC2(CC(C)(C)C2)C(=O)N(C)[C@@H](C2CCCC2)C(=O)N(C)[C@H](C(=O)N(C)CC)CC(=O)N1C [PP2471] | 15.3 | A (a compound having 10 or more and less than 20 is denoted as A) | A (a compound having 10 or more and less than 20 is denoted as A) | – | 0.16 | – | – | – | – |
| CCO[C@@H]1C[C@H]2C(=O)NC3(CCCC3)C(=O)N(C)[C@@H](C3CCCC3)C(=O)N(C)[C@H](C(=O)N(C)C)CC(=O)N(C)[C@@H]([C@@H](C)OC)C(=O)N[C@@H]([C@@H](C)CC)C(=O)N(C3CC3)CC(=O)N(C)[C@H]3C/C=C\CCN(C3=O)[C@@H](Cc3ccc(C)cc3)C(=O)N(C)CC(=O)N[C@@H](CCc3cc(F)c(C(F)(F)F)c(F)c3)C(=O)N2C1 [PP3482] | 38.6 | A (a compound having 10 or more and less than 20 is denoted as A) | A (a compound having 10 or more and less than 20 is denoted as A) | 0.6 | – | – | – | – | – |
| CCO[C@@H]1C[C@H]2C(=O)OC3(CCC3)C(=O)N(C)[C@@H](C3CCCC3)C(=O)N(C)[C@H](C(=O)N(C)C)CC(=O)N(C)[C@@H](CC(C)C)C(=O)N[C@@H]([C@@H](C)CC)C(=O)N3CCC[C@H]3C(=O)N(C)[C@H]3C/C=C\CCN(C3=O)[C@@H](Cc3ccc(C)cc3)C(=O)N(C)CC(=O)N[C@@H](CCc3ccc(C(F)(F)F)c(OC)c3)C(=O)N2C1 [PP3380] | 28.9 | A (a compound having 10 or more and less than 20 is denoted as A) | B (a compound having 3 or more and less than 10 is denoted as B) | 1.3 | – | – | – | – | – |
| CCO[C@@H]1C[C@H]2C(=O)NC3(CCC3)C(=O)N(C)[C@@H](C3CCCC3)C(=O)N(C)[C@H](C(=O)N3CCOCC3)CC(=O)N(C)[C@@H](Cc3ccsc3)C(=O)N[C@@H]([C@@H](C)CC)C(=O)N(C)CC(=O)N(C)[C@H]3CCCCCN(C3=O)[C@@H](Cc3ccc(C(F)(F)F)cc3)C(=O)N(C)CC(=O)N[C@@H](CCc3cc(F)c(C(F)(F)F)c(F)c3)C(=O)N2C1 [PP1164] | – | – | – | – | – | 95.9 | B (a compound having 3 or more and less than 10 is denoted as B) | B (a compound having 3 or more and less than 10 is denoted as B) | 0.52 |
| CCO[C@@H]1C[C@H]2C(=O)NC3(CCC3)C(=O)N(C)[C@@H](C(CC)CC)C(=O)N(C)[C@H](C(=O)N3CCOCC3)CC(=O)N(C)[C@@H](CC(C)C)C(=O)N[C@@H]([C@@H](C)CC)C(=O)N(C)CC(=O)N(C)[C@H]3C/C=C\CCN(C3=O)[C@@H](Cc3ccc(C(F)(F)F)cc3)C(=O)N(C)CC(=O)N[C@@H](CCc3cc(F)c(C(F)(F)F)c(F)c3)C(=O)N2C1 [PP1287] | – | – | – | – | – | 49.7 | AA (a compound having 20 or more is denoted as AA) | A (a compound having 10 or more and less than 20 is denoted as A) | 0.56 |
| CC[C@H](C)[C@@H]1NC(=O)[C@H](CC2CC2)N(C)C(=O)C[C@@H](C(=O)N(C)C)N(C)C(=O)[C@H](C2CCCC2)N(C)C(=O)C2(CCCC2)NC(=O)[C@@H]2CCCN2C(=O)[C@H](CCc2cc(F)c(C(F)(F)F)c(F)c2)NC(=O)CN(C)C(=O)[C@H](Cc2ccc(C(F)(F)F)cc2)N2C[C@H](C)[C@H](C)C[C@@H](C2=O)N(C)C(=O)CN(C)C1=O [PP1368] | – | – | – | – | – | 2.9 | A (a compound having 10 or more and less than 20 is denoted as A) | B (a compound having 3 or more and less than 10 is denoted as B) | 0.061 |
| CCC[C@H]1C(=O)N[C@@H](CC(C)C)C(=O)N(CC)CC(=O)N(C)[C@H]2C/C=C\CCN(C2=O)[C@@H](Cc2ccc(C)cc2)C(=O)N(C)CC(=O)N[C@@H](CCc2ccc(C(F)(F)F)c(Cl)c2)C(=O)N2C[C@H](OCC)C[C@H]2C(=O)NC2(CC(C)(C)C2)C(=O)N(C)[C@@H](C2CCCC2)C(=O)N(C)[C@H](C(=O)N(C)C)CC(=O)N1C [PP2528] | 207 | A (a compound having 10 or more and less than 20 is denoted as A) | B (a compound having 3 or more and less than 10 is denoted as B) | – | 4.6 | – | – | – | – |
